The record followed here is patent US8343961B2, “Substituted heterocyclic compounds” (ArQule, Inc., priority 2009, dated 2013).

A value given as a limit tells only on which side of the number the result lay.

One test deals with MDA-MB-231. In words: MTS Cellular Assay, MDA-MB-231. The format is cell-based. Conditions: Homo sapiens, MDA-MB-231, 72 hours. The method, then: (§1) Cells were maintained at 37° C., 5% CO2 in DMEM media supplemented with 1% fetal bovine serum, penicillin/streptomycin and fungizone (Invitrogen). Cells were seeded into 96-well tissue culture plates at 3000 per well and cultured at 37° C. for 18 hours. Test compounds were dissolved and diluted to 300× in DMSO then further diluted 1:40 in DMEM before addition to cells (1:7.5 dilution). Cells were incubated with test compounds for 72 hours followed by incubation with tetrazolium compound (3-(4,5-dimethylthiazol-2-yl)-5-(3-carboxymethoxyphenyl)-2-(4-sulfophenyl)-2H-tetrazolium, inner salt; MTS) and the electron coupling reagent, phenazine methosulfate (PMS) for 4 hours. […] The ability of compounds to inhibit cell growth in this assay is correlated with the reduction of dehydrogenase enzyme activity found in metabolically active cells. The measurement of the absorbance of the formazan was assessed using an ENVISION™ (Perkin Elmer) microplate reader at 492 nm. The calculated IC50 value is the concentration of the test compound that causes a 50% decrease in the absorbance.

For another test, the system named is DLD-1. Put plainly: MTS Cellular Assay, DLD-1. It is filed as cell-based. Conditions: Homo sapiens, DLD-1, 72 hours. The method, then:
as §1

Another test concerns PACA-2. Put plainly: MTS Cellular Assay, PACA-2. Conditions: PACA-2, 72 hours. It is filed as cell-based. Here is the method: as §1
A further test relates to PC-3. Put plainly: MTS Cellular Assay, PC-3. It is filed as cell-based. Conditions: Homo sapiens, PC-3, 72 hours. Here is the method:
as §1

The next test concerns the target T1, Tec kinase (Homo sapiens, UniProt P42680).
T1 sequence (P42680 1-631): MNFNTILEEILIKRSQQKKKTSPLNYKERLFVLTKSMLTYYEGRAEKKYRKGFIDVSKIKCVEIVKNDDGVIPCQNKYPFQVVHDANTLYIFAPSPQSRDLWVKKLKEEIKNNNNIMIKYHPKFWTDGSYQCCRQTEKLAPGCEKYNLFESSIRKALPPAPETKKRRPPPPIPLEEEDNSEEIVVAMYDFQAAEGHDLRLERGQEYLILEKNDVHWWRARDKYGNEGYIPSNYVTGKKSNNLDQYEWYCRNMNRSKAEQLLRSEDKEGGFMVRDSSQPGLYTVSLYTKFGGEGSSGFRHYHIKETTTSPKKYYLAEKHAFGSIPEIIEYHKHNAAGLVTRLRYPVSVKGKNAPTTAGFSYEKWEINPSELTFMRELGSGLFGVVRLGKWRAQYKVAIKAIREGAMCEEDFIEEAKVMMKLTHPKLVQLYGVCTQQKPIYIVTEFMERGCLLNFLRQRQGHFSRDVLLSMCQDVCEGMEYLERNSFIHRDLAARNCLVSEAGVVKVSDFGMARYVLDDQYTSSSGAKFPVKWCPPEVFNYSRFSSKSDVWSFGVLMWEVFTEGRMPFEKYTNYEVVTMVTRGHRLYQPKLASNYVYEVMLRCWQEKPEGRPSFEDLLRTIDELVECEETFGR
Put plainly: Tec Kinase Activity Assay. It is filed as biochemical. Conditions: read-out: Tec % INH, at 30 uM. A digest of the protocol:
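Biochemical Tec kinase reaction in Tris-HCl/MgCl2/EGTA/DTT buffer with 75 μM ATP, compound pre-incubated with enzyme for 30 min, then biotinylated Pyk-2 substrate added for 2 h at room temperature. Phosphorylated product captured on streptavidin and detected by anti-phosphotyrosine ELISA with alkaline phosphatase/Attophos fluorescence.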

In the next test the test system is NCI-H1299. Put plainly: MTS Cellular Assay, NCI-H1299. It is filed as cell-based. Conditions: Homo sapiens, NCI-H1299, 72 hours. The method, then:
as §1

A further test concerns KATO III. In words: MTS Cellular Assay, KATO III. The format is cell-based. Conditions: Homo sapiens, 72 hours. The method, then:
as §1

In the case of `COc1ccc(OC)c(CN2CCN(c3nc(N)nc4[nH]ncc34)Cc3ccccc32)c1` [Compound 36, 4-[1-(2,5-dimethoxybenzyl)-1,2,3,5-tetrahydro-4H-1,4-benzodiazepin-4-yl]-1H-pyrazolo[3,4-d]pyrimidin-6-amine], the inhibition at 10 µM with MDA-MB-231, with DLD-1, with PACA-2, in the test on PC-3, in the test with NCI-H1299 and with KATO III was more than 79% each time. Moreover, the inhibition at 30 µM on Tec kinase is 50 to 79%.

On to `Nc1nc(N2CCN(CCCc3cccc(F)c3)c3ccccc3C2)c2nc[nH]c2n1` [Compound 39, 6-{1-[3-(3-fluorophenyl)propyl]-1,2,3,5-tetrahydro-4H-1,4-benzodiazepin-4-yl}-9H-purin-2-amine], for which the inhibition at 10 µM in the test with MDA-MB-231, in the test with DLD-1, in the test with PACA-2, in the test on PC-3, in the test with NCI-H1299 and with KATO III was more than 79% each time. Moreover, the inhibition at 30 µM on Tec kinase is less than 50%.

For `Nc1nc(N2CCN(Cc3ccc(Cl)c(Cl)c3)c3ccccc3C2)c2cn[nH]c2n1` [Compound 43, 4-[1-(3,4-dichlorobenzyl)-1,2,3,5-tetrahydro-4H-1,4-benzodiazepin-4-yl]-1H-pyrazolo[3,4-d]pyrimidin-6-amine], the inhibition at 10 µM was less than 50% in the test on MDA-MB-231; more than 79% with DLD-1; less than 50% in the test on PACA-2; less than 50% with PC-3; 50 to 79% in the test on NCI-H1299; less than 50% in the test on KATO III. Also, the inhibition at 30 µM at Tec kinase was more than 79%.
